# According to ChEMBL document CHEMBL1201862, “PubChem BioAssay data set” (2004):
# The source made the active and inactive calls.
# What was measured:
# [1] = M. tuberculosis growth inhibition, HTS (AID 449762); format: functional
# NADPH oxidase 1 = biological target: T1, NADPH oxidase 1 (Homo sapiens, UniProt Q9Y5S8); test: Late-stage luminescence-based cell-based dose response assay to identify inhibitors of NADPH oxidase 1 (NOX1): Purchased analogs 2.; format: functional
# T1 sequence (Q9Y5S8 whole entry): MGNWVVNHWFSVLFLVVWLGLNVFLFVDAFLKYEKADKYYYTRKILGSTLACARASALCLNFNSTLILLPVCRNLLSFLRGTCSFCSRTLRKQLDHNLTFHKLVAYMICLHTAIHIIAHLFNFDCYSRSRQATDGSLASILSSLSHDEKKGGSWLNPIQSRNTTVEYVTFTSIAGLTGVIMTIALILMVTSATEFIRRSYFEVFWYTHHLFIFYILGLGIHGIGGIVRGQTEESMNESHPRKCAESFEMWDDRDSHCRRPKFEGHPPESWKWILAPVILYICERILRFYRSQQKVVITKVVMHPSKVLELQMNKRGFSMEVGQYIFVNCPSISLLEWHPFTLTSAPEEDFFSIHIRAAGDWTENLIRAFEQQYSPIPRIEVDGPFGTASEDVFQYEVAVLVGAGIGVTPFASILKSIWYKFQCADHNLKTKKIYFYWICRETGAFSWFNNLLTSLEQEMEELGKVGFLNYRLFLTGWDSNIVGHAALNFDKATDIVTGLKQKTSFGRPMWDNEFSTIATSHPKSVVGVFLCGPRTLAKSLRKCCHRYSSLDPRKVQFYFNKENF
# Danio rerio = test: In Vivo Angiogenesis Dose-Response Confirmation. [Related pubchem assays: 732 (Assay preceding this confirmatory assay.)]; format: functional, organism-based
# [2] = biological target: T2, Tyrosine-protein phosphatase non-receptor type 7 (Homo sapiens, UniProt P35236); test: inhibitors of human HePTP phosphatase, […], biochemical, absorbance, leukemia target (AID 521); format: functional
# T2 sequence (P35236 whole entry): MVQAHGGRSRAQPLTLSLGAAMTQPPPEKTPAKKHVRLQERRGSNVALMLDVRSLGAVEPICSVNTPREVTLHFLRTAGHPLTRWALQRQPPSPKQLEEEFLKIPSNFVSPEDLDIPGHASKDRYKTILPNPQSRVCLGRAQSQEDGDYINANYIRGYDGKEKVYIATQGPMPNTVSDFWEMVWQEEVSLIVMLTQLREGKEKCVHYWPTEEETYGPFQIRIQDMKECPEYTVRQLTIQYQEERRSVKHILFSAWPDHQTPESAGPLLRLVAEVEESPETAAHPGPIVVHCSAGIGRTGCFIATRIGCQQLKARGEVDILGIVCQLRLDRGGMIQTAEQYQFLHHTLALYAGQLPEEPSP
# [3] = biological target: Peroxisome proliferator-activated receptor gamma/Nuclear receptor corepressor 2 (Homo sapiens, UniProt P37231+Q9Y618); test: Counterscreen for NR2E3 inverse agonists: TR-FRET-based biochemical high throughput dose response assay to identify inverse agonists of the interaction between peroxisome proliferator-activated receptor gamma (PPARg) and nuclear receptor co-repressor 2 (NCOR2).; format: functional
# [4] = biological target: Photoreceptor-specific nuclear receptor (Homo sapiens, UniProt Q9Y5X4); test: NR2E3 inverse agonists, dose response, biochemical, TR-FRET (AID 463256); format: functional
# Genome polyprotein = Genome polyprotein (Hepatitis C virus, UniProt Q2Q167); test: HCV core protein dimerization inhibitors, dose response, biochemical, TR-FRET (AID 2159); parameters: species or system Hepacivirus hominis;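 note: blocks dimerization of HCV core protein measured by TR-FRET between tagged core106 pairs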
# H9c2 = test: cells; format: functional, cell-based; conditions: Rattus norvegicus, H9c2, Myocardium;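 note: confirmatory concentration-response retest of ultra-high-throughput screening hits for modulation of myocardial damage; cell death induced by hydrogen peroxide oxidative stress; compound pretreatment for 60 min then peroxide exposure for 2 h; potency is for protecting the cells against peroxide damage rather than for killing them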
# Leucine aminopeptidase = biological target: T3, Leucine aminopeptidase (Plasmodium falciparum 3D7, UniProt Q8IL11); test: P. falciparum M17LAP inhibitors, primary screen, biochemical, fluorogenic H-Leu-NHMec substrate, 1536-well (AID 1619); format: functional
# T3 sequence (Q8IL11 whole entry): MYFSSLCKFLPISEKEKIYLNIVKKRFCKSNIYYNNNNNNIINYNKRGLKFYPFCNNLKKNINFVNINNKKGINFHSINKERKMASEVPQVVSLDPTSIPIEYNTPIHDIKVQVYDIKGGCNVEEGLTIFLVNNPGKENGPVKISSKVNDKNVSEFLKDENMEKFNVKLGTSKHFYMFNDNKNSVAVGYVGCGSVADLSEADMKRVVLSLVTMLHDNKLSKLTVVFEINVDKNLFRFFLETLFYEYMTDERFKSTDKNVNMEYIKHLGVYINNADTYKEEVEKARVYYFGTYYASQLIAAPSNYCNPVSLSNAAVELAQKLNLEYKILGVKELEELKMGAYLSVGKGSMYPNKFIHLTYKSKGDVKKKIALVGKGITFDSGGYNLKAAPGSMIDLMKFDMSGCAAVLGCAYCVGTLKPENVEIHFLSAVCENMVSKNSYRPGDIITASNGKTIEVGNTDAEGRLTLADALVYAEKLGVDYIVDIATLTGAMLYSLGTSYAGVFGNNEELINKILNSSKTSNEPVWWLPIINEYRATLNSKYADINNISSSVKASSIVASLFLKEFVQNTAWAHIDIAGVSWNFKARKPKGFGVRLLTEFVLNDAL
# [5] = biological target: Aryl hydrocarbon receptor (Homo sapiens, UniProt P35869); test: Luminescence-based cell-based high throughput dose response assay for activators of the Aryl Hydrocarbon Receptor (AHR). [Related pubchem assays: 2796 (Primary screen (AHR activators in singlicate)), 2845 (Confirmation screen (AHR activators in triplicate)), 434939 (Counterscreen (PXR activators in triplicate)), 2804 (Summary (AHR activators))]; format: ADME
# [6] = biological target: Glyceraldehyde-3-phosphate dehydrogenase (Homo sapiens, UniProt P04406)
# Bcl-2-related protein A1 [7] = biological target: T4, Bcl-2-related protein A1 (Mus musculus, UniProt Q07440); test: Bfl-1 inhibitors blocking BH3 peptide binding, confirmation, biochemical, TR-FRET, mouse Bfl-1 (AID 621);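 note: TR-FRET binding of GST-Bfl-1 to FITC-labelled Bid peptide via terbium antibody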
# T4 sequence (Q07440 whole entry): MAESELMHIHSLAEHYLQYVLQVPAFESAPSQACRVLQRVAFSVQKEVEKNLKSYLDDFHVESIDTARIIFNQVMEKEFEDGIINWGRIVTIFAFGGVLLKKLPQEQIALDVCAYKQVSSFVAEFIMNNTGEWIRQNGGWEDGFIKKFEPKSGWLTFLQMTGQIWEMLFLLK
# Bcl-2-related protein A1 [8] = biological target: T4, Bcl-2-related protein A1; test: Bfl-1 binding inhibitors, SAR follow-up, biochemical, fluorescence polarization (AID 1070)
# Vero = test: host cell cytotoxicity of antiviral hits, dose response, cytotoxicity control for West Nile virus antiviral project, secondary assay (AID 1650); format: functional; conditions: Chlorocebus sabaeus
# [9] = Luminescence Cell-Based Dose Retest to Confirm Inhibitors of Cancer Stem Cells. [Related pubchem assays (depositor defined):AID2717, AID2721]; format: functional; conditions: Homo sapiens
# [10] = biological target: Serine/threonine-protein phosphatase PP1-alpha catalytic subunit (Homo sapiens, UniProt P62136); test: PP1 phosphatase inhibitors, dose response, biochemical, fluorescence (AID 2394)
# [11] = inhibitors of intracellular T. cruzi replication, confirmation, NIH3T3 host cells, beta-gal luminescence (AID 2044); format: functional, cell-based;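 note: intracellular parasites grown in NIH/3T3 mouse fibroblasts as host cells; luminescent beta-galactosidase reporter signal from transgenic T. cruzi replicating inside host cells; inhibitors lower the luminescence signal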
# [12] = biological target: Serine/threonine-protein phosphatase (Homo sapiens, UniProt Q9BPW0); test: PP5 phosphatase inhibitors, dose response, biochemical, fluorescence (AID 2395)
# [13] = cytotoxicity toward NIH3T3 fibroblasts, dose response, counter-screen, cell-based, ATP luminescence, mouse fibroblasts (AID 2010); format: functional;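 note: cells exposed to compound for about 90 hours before reading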
# [14] = biological target: T5, Apoptotic protease-activating factor 1 (Homo sapiens, UniProt O14727); format: functional
# T5 sequence (O14727 whole entry): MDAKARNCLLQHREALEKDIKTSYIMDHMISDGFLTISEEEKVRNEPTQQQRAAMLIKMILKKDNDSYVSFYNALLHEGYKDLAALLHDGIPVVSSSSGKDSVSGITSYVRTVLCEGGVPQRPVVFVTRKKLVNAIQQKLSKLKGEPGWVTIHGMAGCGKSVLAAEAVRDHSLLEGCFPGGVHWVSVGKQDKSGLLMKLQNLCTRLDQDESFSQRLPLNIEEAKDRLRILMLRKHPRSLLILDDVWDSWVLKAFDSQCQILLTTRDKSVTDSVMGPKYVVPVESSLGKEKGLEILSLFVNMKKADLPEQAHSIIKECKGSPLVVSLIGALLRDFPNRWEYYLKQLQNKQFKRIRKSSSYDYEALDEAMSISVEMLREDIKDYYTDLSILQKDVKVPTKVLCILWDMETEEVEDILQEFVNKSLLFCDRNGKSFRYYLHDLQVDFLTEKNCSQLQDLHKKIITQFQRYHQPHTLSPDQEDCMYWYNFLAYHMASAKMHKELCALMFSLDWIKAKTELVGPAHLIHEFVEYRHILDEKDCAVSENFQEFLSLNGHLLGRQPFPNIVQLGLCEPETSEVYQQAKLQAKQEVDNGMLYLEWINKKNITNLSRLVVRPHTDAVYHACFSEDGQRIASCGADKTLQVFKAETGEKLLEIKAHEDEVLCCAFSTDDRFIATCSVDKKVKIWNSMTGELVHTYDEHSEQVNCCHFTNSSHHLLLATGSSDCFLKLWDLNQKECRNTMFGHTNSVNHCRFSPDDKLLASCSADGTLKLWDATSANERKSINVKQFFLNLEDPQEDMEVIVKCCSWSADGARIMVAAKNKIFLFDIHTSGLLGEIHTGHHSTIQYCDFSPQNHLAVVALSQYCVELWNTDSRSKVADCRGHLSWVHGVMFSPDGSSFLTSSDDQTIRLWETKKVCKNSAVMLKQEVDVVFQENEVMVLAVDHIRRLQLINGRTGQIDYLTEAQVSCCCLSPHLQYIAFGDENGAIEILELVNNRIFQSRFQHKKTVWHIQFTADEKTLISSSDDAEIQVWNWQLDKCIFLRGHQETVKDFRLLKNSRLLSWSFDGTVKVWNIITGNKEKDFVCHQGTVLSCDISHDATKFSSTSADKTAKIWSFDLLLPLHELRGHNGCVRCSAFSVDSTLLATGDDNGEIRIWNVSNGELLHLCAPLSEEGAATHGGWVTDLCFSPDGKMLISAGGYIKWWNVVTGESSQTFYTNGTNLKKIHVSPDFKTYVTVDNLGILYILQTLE
# [15] = biological target: Histone-lysine N-methyltransferase NSD2 (Homo sapiens, UniProt O96028); format: biochemical
# [16] = biological target: RNA-editing ligase 1, mitochondrial (Trypanosoma brucei brucei, UniProt P86926); test: TbREL1 ligase inhibitors, dose response, biochemical, fluorescence, Trypanosoma brucei (AID 1117295); format: functional
# [17] = biological target: Eukaryotic translation initiation factor 4H (Homo sapiens, UniProt Q15056); test: human eIF4H binding inhibitors, primary screen, translation initiation inhibitor project, biochemical, uHTS, fluorescence polarization (AID 2012)
# [18] = biological target: 5-hydroxytryptamine receptor 1A (Homo sapiens, UniProt P08908); format: functional
# [19] = biological target: Polyadenylate-binding protein 1 (Homo sapiens, UniProt P11940); test: PABP poly(A) RNA binding inhibitors, primary screen, biochemical, fluorescence polarization, uHTS (AID 2014)
# [20] = biological target: T6, Carboxy-terminal domain RNA polymerase II polypeptide A small phosphatase 1 (Homo sapiens, UniProt Q9GZU7); test: inhibitors of CTDSP1, concentration-response testing, biochemical assay, absorbance-based, actives from ultra-high-throughput screening (AID 540297); format: functional
# T6 sequence (Q9GZU7 whole entry): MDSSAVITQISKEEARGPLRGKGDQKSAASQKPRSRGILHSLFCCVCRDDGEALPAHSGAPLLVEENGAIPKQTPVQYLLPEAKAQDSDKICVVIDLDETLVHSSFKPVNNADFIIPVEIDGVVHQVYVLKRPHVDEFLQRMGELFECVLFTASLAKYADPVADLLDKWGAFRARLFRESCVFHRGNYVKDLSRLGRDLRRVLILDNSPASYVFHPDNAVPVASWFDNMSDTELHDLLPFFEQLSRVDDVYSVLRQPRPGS
# Aryl hydrocarbon receptor, sequence (P35869 whole entry): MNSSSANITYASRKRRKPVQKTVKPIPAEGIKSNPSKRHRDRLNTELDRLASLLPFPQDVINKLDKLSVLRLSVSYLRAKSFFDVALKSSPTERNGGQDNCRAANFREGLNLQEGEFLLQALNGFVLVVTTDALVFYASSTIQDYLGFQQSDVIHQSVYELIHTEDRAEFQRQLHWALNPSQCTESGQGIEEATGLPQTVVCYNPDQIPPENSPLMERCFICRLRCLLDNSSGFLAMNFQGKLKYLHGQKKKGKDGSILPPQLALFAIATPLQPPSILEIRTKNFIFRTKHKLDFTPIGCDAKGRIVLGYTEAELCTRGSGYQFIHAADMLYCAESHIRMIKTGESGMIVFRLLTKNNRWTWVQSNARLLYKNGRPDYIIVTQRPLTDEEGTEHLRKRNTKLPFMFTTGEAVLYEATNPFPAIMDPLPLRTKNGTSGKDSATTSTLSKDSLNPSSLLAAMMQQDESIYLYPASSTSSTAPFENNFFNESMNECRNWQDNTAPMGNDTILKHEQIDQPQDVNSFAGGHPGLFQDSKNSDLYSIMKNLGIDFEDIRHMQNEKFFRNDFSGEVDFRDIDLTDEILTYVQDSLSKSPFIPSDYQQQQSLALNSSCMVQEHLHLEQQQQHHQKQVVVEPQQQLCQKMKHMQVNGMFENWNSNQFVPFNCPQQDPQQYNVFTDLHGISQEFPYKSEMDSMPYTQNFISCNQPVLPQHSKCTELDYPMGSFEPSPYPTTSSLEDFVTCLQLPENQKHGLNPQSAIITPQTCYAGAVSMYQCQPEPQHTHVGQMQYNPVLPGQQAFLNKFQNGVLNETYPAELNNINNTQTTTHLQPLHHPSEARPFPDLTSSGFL
# RNA-editing ligase 1, mitochondrial, sequence (P86926 whole entry): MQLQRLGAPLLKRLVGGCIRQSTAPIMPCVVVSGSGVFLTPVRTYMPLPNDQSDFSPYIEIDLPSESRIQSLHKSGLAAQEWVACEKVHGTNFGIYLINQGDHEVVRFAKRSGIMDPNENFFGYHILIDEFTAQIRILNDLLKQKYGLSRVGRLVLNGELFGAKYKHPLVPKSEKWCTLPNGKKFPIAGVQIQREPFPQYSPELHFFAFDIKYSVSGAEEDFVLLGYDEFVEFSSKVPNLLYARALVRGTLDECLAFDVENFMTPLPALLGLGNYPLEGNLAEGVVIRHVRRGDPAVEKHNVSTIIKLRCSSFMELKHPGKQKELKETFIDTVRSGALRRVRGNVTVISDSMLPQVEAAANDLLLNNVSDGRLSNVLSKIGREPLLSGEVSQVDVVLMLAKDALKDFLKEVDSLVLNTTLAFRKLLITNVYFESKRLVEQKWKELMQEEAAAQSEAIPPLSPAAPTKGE
# Histone-lysine N-methyltransferase NSD2, sequence (O96028 whole entry): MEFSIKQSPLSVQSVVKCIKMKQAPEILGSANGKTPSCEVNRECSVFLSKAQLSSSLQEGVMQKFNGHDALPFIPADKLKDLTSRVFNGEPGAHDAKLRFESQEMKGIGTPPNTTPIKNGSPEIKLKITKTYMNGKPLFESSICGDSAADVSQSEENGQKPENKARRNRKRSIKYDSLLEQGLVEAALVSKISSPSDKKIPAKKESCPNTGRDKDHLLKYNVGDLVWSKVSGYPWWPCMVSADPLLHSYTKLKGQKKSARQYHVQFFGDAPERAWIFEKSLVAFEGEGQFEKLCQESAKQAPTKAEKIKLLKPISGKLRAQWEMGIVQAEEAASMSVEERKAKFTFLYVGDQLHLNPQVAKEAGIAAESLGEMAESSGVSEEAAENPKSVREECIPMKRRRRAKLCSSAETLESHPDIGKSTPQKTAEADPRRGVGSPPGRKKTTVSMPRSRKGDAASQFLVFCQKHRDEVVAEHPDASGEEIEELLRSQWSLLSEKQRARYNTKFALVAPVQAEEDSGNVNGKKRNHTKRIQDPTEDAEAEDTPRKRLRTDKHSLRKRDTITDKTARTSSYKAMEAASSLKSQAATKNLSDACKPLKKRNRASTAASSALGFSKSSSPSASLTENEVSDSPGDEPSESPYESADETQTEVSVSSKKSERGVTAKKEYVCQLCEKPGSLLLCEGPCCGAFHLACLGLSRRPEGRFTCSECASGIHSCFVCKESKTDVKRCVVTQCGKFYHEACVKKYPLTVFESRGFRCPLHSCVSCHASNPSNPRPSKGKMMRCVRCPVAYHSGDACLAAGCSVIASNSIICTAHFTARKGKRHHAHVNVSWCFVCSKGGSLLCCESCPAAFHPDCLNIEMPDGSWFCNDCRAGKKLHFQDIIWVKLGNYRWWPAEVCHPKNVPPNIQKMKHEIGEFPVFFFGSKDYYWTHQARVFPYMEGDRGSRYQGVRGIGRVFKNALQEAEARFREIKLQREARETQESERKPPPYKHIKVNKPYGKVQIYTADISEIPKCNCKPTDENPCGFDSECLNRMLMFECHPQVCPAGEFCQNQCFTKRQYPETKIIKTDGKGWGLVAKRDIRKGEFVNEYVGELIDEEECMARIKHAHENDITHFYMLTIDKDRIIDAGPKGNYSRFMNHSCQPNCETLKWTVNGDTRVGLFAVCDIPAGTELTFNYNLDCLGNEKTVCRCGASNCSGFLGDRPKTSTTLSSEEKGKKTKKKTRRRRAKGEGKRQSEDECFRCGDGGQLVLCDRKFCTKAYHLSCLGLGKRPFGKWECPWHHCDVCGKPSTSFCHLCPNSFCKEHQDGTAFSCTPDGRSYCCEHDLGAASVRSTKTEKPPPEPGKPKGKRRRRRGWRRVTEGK
# Polyadenylate-binding protein 1, sequence (P11940 whole entry, the tested form may be a part): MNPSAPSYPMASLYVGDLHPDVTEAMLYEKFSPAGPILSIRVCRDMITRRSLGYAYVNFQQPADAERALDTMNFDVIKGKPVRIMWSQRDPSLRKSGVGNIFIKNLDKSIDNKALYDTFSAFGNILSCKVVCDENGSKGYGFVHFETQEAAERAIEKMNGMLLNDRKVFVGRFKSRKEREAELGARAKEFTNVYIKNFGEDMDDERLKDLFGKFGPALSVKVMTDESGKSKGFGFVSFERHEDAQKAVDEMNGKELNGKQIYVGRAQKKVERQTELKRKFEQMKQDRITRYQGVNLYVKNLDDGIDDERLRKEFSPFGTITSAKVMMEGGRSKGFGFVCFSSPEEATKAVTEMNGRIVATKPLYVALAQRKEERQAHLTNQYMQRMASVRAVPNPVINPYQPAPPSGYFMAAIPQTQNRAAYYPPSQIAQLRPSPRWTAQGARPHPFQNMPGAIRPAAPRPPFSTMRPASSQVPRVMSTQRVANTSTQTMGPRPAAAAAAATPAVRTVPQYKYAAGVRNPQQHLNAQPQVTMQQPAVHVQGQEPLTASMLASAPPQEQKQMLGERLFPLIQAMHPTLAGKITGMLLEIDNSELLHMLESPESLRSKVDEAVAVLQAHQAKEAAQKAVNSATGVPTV
# Serine/threonine-protein phosphatase, sequence (Q9BPW0 whole entry): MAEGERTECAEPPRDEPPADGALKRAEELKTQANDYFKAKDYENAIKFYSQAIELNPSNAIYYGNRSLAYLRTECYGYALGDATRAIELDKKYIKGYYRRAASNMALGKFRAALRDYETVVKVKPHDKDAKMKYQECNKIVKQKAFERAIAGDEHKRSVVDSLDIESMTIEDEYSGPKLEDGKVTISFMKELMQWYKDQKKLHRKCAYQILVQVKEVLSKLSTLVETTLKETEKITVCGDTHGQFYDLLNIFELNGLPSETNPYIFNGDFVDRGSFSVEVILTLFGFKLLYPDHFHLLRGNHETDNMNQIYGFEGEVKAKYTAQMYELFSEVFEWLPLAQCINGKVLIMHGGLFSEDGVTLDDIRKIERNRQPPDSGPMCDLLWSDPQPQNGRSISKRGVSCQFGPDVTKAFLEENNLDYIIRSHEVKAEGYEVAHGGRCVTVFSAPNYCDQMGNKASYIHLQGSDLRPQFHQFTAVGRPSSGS
# Photoreceptor-specific nuclear receptor, sequence (Q9Y5X4 whole entry): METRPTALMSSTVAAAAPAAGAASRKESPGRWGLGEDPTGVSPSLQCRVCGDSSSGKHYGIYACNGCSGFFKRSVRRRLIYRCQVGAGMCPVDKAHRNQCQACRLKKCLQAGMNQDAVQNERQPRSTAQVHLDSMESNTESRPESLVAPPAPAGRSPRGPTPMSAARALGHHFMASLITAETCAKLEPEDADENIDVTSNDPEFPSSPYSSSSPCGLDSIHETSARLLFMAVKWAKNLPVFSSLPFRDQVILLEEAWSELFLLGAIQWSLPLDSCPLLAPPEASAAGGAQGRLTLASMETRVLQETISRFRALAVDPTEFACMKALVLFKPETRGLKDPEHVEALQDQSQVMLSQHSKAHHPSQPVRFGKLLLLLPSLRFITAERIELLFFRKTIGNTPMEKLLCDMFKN
# Glyceraldehyde-3-phosphate dehydrogenase, sequence (P04406 whole entry): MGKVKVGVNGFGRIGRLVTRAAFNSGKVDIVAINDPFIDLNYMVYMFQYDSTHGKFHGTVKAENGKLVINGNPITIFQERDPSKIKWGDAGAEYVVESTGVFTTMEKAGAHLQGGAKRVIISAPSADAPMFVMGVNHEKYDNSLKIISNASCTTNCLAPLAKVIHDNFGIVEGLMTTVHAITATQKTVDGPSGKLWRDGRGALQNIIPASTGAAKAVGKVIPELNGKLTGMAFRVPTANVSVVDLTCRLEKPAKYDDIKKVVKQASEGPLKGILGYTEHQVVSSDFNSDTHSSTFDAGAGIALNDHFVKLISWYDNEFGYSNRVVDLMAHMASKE
# Genome polyprotein, sequence (Q2Q167 whole entry): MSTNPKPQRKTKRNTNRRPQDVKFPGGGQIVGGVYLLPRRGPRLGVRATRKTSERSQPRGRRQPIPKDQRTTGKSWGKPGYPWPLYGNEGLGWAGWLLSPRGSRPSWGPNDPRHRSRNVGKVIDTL
smiles,measurement,setting,value
Clc1ccc(CSc2nc[nH]n2)cc1,IC50,[1],> 100 µM (active)
COc1cc(/C=N/Nc2c(F)c(F)nc(F)c2F)cc(OC)c1O,IC50,NADPH oxidase 1,2.94 µM (active)
Cc1cccc2c1NC(=O)/C2=C1\Nc2ccc(Br)cc2C1=O,IC50,Danio rerio,0.52 µM (not active)
CCc1ccccc1N(CC(=O)OC)S(C)(=O)=O,IC50,[2],> 100 µM (not active)
COc1ccc(-c2ccc(SCC(=O)Nc3nccs3)nn2)cc1OC,IC50,[3],6.57 µM (active)
same,IC50,[4],7.04 µM (active)
COc1ccc2oc(C(=O)Nc3ccc(N4CCOCC4)cc3)c(C)c2c1,IC50,Genome polyprotein,> 49.8 µM (not active)
same,IC50,H9c2,> 79 µM (inactive)
Nc1[nH]ncc1C(=O)Nc1cccc(C(F)(F)F)c1,IC50,Leucine aminopeptidase,44.5 µM (active)
same,EC50,[5],12.5 µM (not active)
COCCNC1=C(Cl)C(=O)N(c2ccc(Cl)c(Cl)c2)C1=O,IC50,[6],> 100 µM (not active)
same,IC50,Bcl-2-related protein A1 [7],4.96 µM (active)
same,IC50,Bcl-2-related protein A1 [8],12.6 µM (active)
Cc1cc(C)c(C(=O)/C=C/c2ccc(C(C)C)cc2)c(O)n1,CC50,Vero,35.8 µM (active)
same,AC50,[9],9.65 µM (active)
Oc1ccccc1/C=N/Nc1cc(N2CCCC2)nc(N2CCCC2)n1,IC50,[10],34.4 µM (not active)
same,EC50,[11],1.85 µM (active)
same,IC50,[12],4.26 µM (active)
same,EC50,[13],> 60 µM (inconclusive)
same,IC50,[14],1.03 µM (active)
same,AC50,[15],1.97 µM (active)
same,IC50,[16],> 96.6 µM (inactive)
C[N+]1=C2CCCCCN2C(O)(c2ccccc2)C1 (stereo unspecified),IC50,[17],75.1 µM (active)
same,EC50,[18],13.8 µM (not active)
same,IC50,[19],3.25 µM (active)
same,IC50,[20],7.03 µM (active)
